US20100286188A1, “MEANS FOR IMPROVING COGNITIVE FUNCTIONS AND MEMORY BASED ON HYDROGENATED PYRIDO(4,3-B)INDOLES (VARIANTS), PHARMACOLOGICAL MEANS BASED THEREON AND METHOD FOR THE USE THEREOF” (priority 2006, published 2010)

Columns and labels:
[1] = cited from earlier work
mice [2] = details: intragastric administration, source not stated; cited from earlier work
rats with a model of AD = details: cholinergic neurons damaged by chronic AF64A; cited from earlier work
[3] = tested on: healthy, mature C57BL/6 male mice; experiment: Object location memory test (recognition of the new location of a known object); type: in vivo; details: for dose with maximally expressed stimulating/activating effect on memory: mice, intragastric
Text: Method. In order to study the action of substances on the memory of animals in which there had been no prior destruction of neurons, we used the test of recognition of the new location of a known object (“Object location memory test”, B. Kolb, K. Buhrmann, R. McDonald and R. Sutherland, Cereb. Cortex, 6 (1994), pp 664-680; D. Gaffan, Eur. J. Neurosci., 4 (1992), pp. 381-388; T. Steckler, W. H. I. M. Drinkenburgh, A. Sahgal and J. P. Aggleton, Prog. Neurobiol., 54 (1998), pp. 289-311). This Object Recognition Test is used to study memory. It provides a reliable, easy-to-use assessment tool for analyzing the effects of test compounds on memory in animals. The test can be applied to normal healthy animals (controls), as well as to animals that are models of various neurodegenerative diseases.
Experiments were performed on healthy, mature C57BL/6 male mice aged 3-5 months and weighing 20-24 g. Male mice were used to exclude any possible negative effects resulting from hormonal changes associated with […] in female mice. The animals were kept in a vivarium with 5 to a cage in 12/12 hours light regime with light from 08.00 to 20.00 and free access to water and food. The observation chamber was made from white opaque organic glass and measured 48×38×30 cm. Brown glass vials with a diameter of 2.7 cm and a height of 5.5 cm were used as the test objects. 2-3 minutes before introducing an animal, the chamber and test objects were rubbed with 85% alcohol. The animals were always placed in the centre of the chamber.
Dimebon was dissolved in distilled water and administered intragastrically 1 hour before training in a volume of 0.05 ml per 10 g of animal weight. A corresponding volume of solvent was administered to control animals.
On the first day, the mice were brought into the test room and acclimatized for 20-30 minutes. After this, each animal was placed for 10 min. in an empty behavior chamber, which had been pretreated with alcohol, for familiarization. The animal was then replaced in the cage and taken to the vivarium.
On the following day, the same mice were brought into the test room, acclimatized for 20-30 min. and then given dimebon solution intragastrically. One hour after administration of the substance, an animal was placed in the behavior chamber, on the bottom of which two identical objects for recognition (glass vials) were placed on a diagonal at a distance of 14.5 cm from the corners. The training time for each animal was 20 min. After 20 min. it was replaced in the cage and returned to the vivarium.
Testing was performed 48 hours after training. For this purpose, after acclimatization an animal was placed for 1 min. in the chamber for refamiliarization. After a minute it was removed and one object was placed on the bottom of the chamber in a location known to the animal, and the other in a new location. The time spent investigating each object separately over a period of 10 min. was recorded with an accuracy of 0.1 s using two electronic stopwatches. The behavior of the animals was observed through a mirror. Purposeful approach of an animal's nose towards an object at a distance of 2 cm or direct touching of an object with the nose was regarded as a positive investigative reaction.
Since significant variations in object investigation time between animals are observed in this test, we calculated the percent investigation time for each mouse using the formula tNl/(tKl+tNl)×100. The total time spent on investigation of the two objects was taken as 100%. The results were further processed using the Student t-test method.

AD patients = details: 20 mg three times daily; cited from earlier work
[4] = Acute toxicity on intragastric administration; type: in vivo; details: mouse, in vivo, po
Experimental: (§1) Investigation of the acute toxicity of Memantine® established that the death of the animals is observed after its intragastric administration in a dose of 300 mg/kg. The LD50 for mice on intragastric administration of Nootropil® (piracetam) is 8000 mg/kg.

mice [5] = experiment: Acute toxicity on intragastric administration; type: in vivo; details: intragastric administration
Experimental: as §1

[6] = dose 0.01 mg/kg intragastrically 1 hour before training, testing 48 hours after training
[7] = dose 0.1 mg/kg intragastrically, testing 48 hours after training
[8] = dose 2.5 mg/kg, testing 48 hours after training

In the case of `NC(=O)CN1CCCC1=O` [Nootropil® (piracetam), piracetam], the “doses with stimulating effect on learning and memory” value ([1]; active and passive avoidance conditioned response tests, depending on the test) is listed as 200 to 500 mg/kg, the “maximally effective dose that stimulated learning and memory” value ([1]; data from the literature) is listed as 200 to 500 mg/kg and the LD50 (mice [2]) is listed as 8000 mg/kg.
For `Cc1ccc2c(c1)c1c(n2CCc2ccc(C)nc2)CCN(C)C1` [dimebon, 2,8-dimethyl-5-[2-(6-methyl-3-pyridyl)ethyl]-2,3,4,5-tetrahydro-1H-pyrido[4,3-b]indole], the “results in active avoidance conditioned reflex experiment versus control animals” value (rats with a model of AD) is given as “significantly better results”, the “stimulating effect on memory, times more active than Nootropil (piracetam)” value ([3]; compared with literature doses of Nootropil) is given as 2000-5000 times and the “memory-enhancing activity relative to Memantine (times higher)” value ([3]; comparing doses with essentially the same effect (0.01 vs 2.5 mg/kg)) is given as 250 times. The “memory-enhancing activity relative to Memantine (times higher)” value ([3]; comparing maximally effective doses (0.1 vs 2.5 mg/kg)) was 25 times, the “percent of time on investigation of the object in the known location” value [3, 6] was 42.5±4.8% and the “percent of time on investigation of the object in the new location” value [3, 6] was 57.5±4.8%. For the same compound, the “percent of time on investigation of the object in the known location” value [3, 7] was 37.6%, the “percent of time on investigation of the object in the new location” value [3, 7] was 62.4±6.5% and the “activating effect on memory” value ([3]; dose increased to 0.25 mg/kg) was “activating effect on memory disappears”. For the same compound, the “dose with maximally expressed stimulating/activating effect on memory” value [3] was 0.1 mg/kg, the “stimulating effect on memory, times more active than Memantine” value ([3]; overall conclusion) was 25-250 times and the “condition of AD patients (memory and cognitive functions)” value (AD patients) was “improvement in the condition of AD patients”. The LD50 [4] was > 1000 mg/kg.
In the case of `CC12CC3CC(C)(C1)CC(N)(C3)C2` [Memantine®, reference compound], the “percent of time on investigation of the object in a known location” value [3, 8] was 40.6±6.9%, the “percent of time on investigation of the object in a new location” value [3, 8] was 59.4±6.9% and the “dose with maximally expressed stimulating/activating effect on memory” value [3] was 2.5 mg/kg. For the same compound, the “dose at which death of the animals is observed” value (mice [5]) was 300 mg/kg.
